Measured values reported in patent publication US6681132B1, “Sodium magnetic reasonance imaging used in diagnosing tumors and assessing response to treatment” (The Trustees of Columbia University in the City of New York, priority 1999, dated 2004).

Key:
Type in all cases: cell-based, human
PC3 cells = test: Free [Nai] with SBFI/AM in 96 well plates, fluorescent plate reader; details: for earliest time of increase of mean SBFI ratio ([Nai]): 10 nM taxotere or 10 μg/ml VP-16 etoposide
Description: For ion measurements (panels C & D), plates were run on a Fluoroskan II fluorescent plate reader (Titertek) using Titertek's computer Interface. Fura II loaded wells (panel D) had measured fluorescence intensities between 15,000 and 25,000 units whereby dye free wells had values ˜100 and 500. The wells with SBFI/AM loaded cells (panel C) had intensities between 4,000 and 9,000 units. Two excitation values were used for each well measurement. Ratios were derived by dividing fluorescent intensity at 345 nm excitation by that at 390 nm, both with a 508 nm mission filter. For all plates, dye free wells were examined for both control and drug treated cells, and served as background values for each wavelength. For [Cai] experiments a second means of determining background fluorescence, which gave statistically similar results, was exposure to 6 mM MnCl2 following the initial measurement. […] Backgrounds were subtracted from each cell in the protocol grouping prior to the ratio being derived. These individual well to well ratios for each protocol grouping were averaqed and used in the statistical tests which determined whether the changes in [Nai] and [Cai] following drug application were significant. Each value plotted below consisted of at least n=5 well ratios. As an additional control, we induced an acute [Cai] response in some control wells for each plate by adding thapsigargin after the initial measurement. Rapid and large [Cai] changes were detected in each case. To derive concentration values from the fluorescence readings, different, but standard approaches (26, 73), were taken with each dye. Both panels C and D show elevation of ion activity developing within 2-6 hours, and in the most part continuing for 18-24 hours.
b. SBFI/AM—This dual excitation wavelength dye is used in a fluorescent plate scanner. With SBFI/AM, we can treat cells cultured in black (non fluorescent) 96 well plates and measure average [Nai] of the cells in each well. [Nai] is calculated using ratio method and in situ calibration—thus ionophores (monensin and gramidicidin) eliminate the transmembrane gradient so that [Nai] can be altered by changing [Nao].
Comparison of the latency of these apoptotic markers with the ionic responses induced by taxotere and VP-16 at the same doses (10 nM and 10 ug/ml, respectively). […] Since its dual wavelength ultraviolet excitation requirement is impractical for flow cytometry, adherent cells were examined in 96 well culture plates using a fluorescent plate reader (Titertek, Fluoroskan II). […] The ratios of emission intensity at the two excitation wavelengths were calculated for each well, and the average ratio plotted for each time point (FIG. 3.C.; left vertical axis). […]

PC3 cell = test: APO-BRDU endlabelling of DNA fragmentation, flow cytometry, PC3
Description: At the end of the treatment period, cells are trypsinized, resuspended in media, resuspended in PBS, resuspended in iced cold methanol free formaldehyde (1% in PBS) for 15 min, resuspended in 70% ethanol and stored at −20° C. until all samples from a given experiment are ready to run (19, 23). Using a very powerful endlabelling technique (APO-BRDU, Phoenix Flow Systems, California) which gives a dynamic range of fluorescence intensities of up to 1000 fold comparing control cells to cells with advanced DNA fragmentation. Results have been confirmed using positive and negative controls provided by Phoenix Flow Systems, camptothecin treated PC3 cells, and a SNAP treated myocyte line.
(§1) Fixed cells are labeled following kit instructions (two washes with kit buffer, overnight endlabelling, two resuspensions in a rinse buffer, exposure to fluorescent antibody and treatment with propidium iodide and RNAase. Flow cytometry is performed on a Becton/Dickenson FACStar II. Individual fluorescence intensity values for 10,000 cells are obtained for each sample.
To specifically assay DNA fragmentation, a downstream response to apoptosis, uses of a terminal deoxynucleotidyl transferase labeling approach whereby fluorescent moieties are enzymatically attached to all DNA fragment ends. (FIG. 3a) The technique which was used, has a dynamic range of approximately ×1000 (FIG. 2). […]

DU145 cells = test: APO-BRDU endlabelling of DNA fragmentation, flow cytometry, DU145; details: for time course of DNA fragmentation: DU 145, 24-hr sample point
Description: Chemotherapy, cellular apoptosis, ion activity Cells were cultured and drugs added to media for various times. Fluorescent endlabelling techniques for flow cytometry have been described in detail (23, 97). […] TdT attaches BrdU to DNA ends, following which fluorescent antibodies for BrdU tagged the DNA fragments. Propidium iodide (PI) gives cell cycle position.
At the end of the treatment period, cells are trypsinized, resuspended in media, resuspended in PBS, resuspended in iced cold methanol free formaldehyde (1% in PBS) for 15 min, resuspended in 70% ethanol and stored at −20° C. until all samples from a given experiment are ready to run (19, 23).
as §1
To specifically assay DNA fragmentation, a downstream response to apoptosis, uses of a terminal deoxynucleotidyl transferase labeling approach whereby fluorescent moieties are enzymatically attached to all DNA fragment ends.

## COc1cc([C@@H]2c3cc4c(cc3[C@@H](O[C@@H]3O[C@@H]5CO[C@@H](C)O[C@H]5[C@H](O)[C@H]3O)[C@H]3COC(=O)[C@H]23)OCO4)cc(OC)c1O [VP-16, etoposide]
PC3 cells
  earliest time of increase of mean SBFI ratio ([Nai]): 2 h
PC3 cell
  time course of DNA fragmentation: continues to develop beyond the 24-hr sample point
DU145 cells
  time course of DNA fragmentation: response peaks and subsides
DU145 cells; Du145, 8 hrs
  endlabelling response: No response
DU145 cells; Du145, 24 hrs exposure
  increase of endlabelling intensity (DNA fragmentation): 100 fold

## CC(=O)O[C@@]12CO[C@@H]1C[C@H](O)[C@@]1(C)C(=O)[C@H](O)C3=C(C)[C@@H](OC(=O)[C@H](O)[C@@H](NC(=O)OC(C)(C)C)c4ccccc4)C[C@@](O)([C@@H](OC(=O)c4ccccc4)[C@H]21)C3(C)C [taxotere]
PC3 cells
  earliest time of increase of mean SBFI ratio ([Nai]): 2 h
PC3 cells; 10 nMol/L in tissue culture
  persistence of ionic elevations ([Nai], [Cai]): at least 24 hrs
  time by which ionic elevations ([Nai], [Cai]) were significant: ≤ 6 h
PC3 cell
  time course of DNA fragmentation: continues to develop beyond the 24-hr sample point
DU145 cells
  time course of DNA fragmentation: response peaks and subsides
